The results in this text go back to patent US9889078B2, “Skin and/or hair whitening mixture” (Symrise AG, priority 2013, dated 2018).

The assay has as its system human full-thickness skin explants. The experiment in a line: ex-vivo study of lightening efficacy (melanin content) in human full-thickness skin explants. The settings on record: for Melanin reduction: Reduction vs. Standard (%): treatments versus placebo at day 6, phototype tanned. Format: cell-based.

Procedure: To evaluate the lightening efficacy of the test products an ex-vivo study using human full-thickness skin explants was performed. […] 1,2-Pentandiol was added to some of the blends to improve the penetration of the active ingredients into the skin layers.

For the molecule `CC(C)=CCC[C@@](C)(O)[C@@H]1CC=C(C)CC1` [Bisabolol], under “0.08% Bisabolol alone, ex vivo model, tanned phototype”, the “efficacy (melanin decrease)” value was “did not have any efficacy”.
On to `CC(c1ccccc1)c1ccc(O)cc1O` (centres unmarked) [Example C2, Phenylethyl Resorcinol], for which the “Melanin reduction: Reduction vs. Standard (%)” value is reported as −13%.
For `CC(c1ccccc1)c1ccc(O)cc1O` (centres unmarked) [Example C3, Phenylethyl Resorcinol], the “Melanin reduction: Reduction vs. Standard (%)” value is on record as −21%.
Same read-out and setting: then `CC(C)=CCC[C@](C)(O)C1CC=C(C)CC1` (some centres unmarked) [Example C4, Bisabolol], with 0%.
For the molecule `CC(c1ccccc1)c1ccc(O)cc1O` (centres unmarked) [Pheneylethyl Resorcinol, Phenylethyl Resorcinol], the melanin decrease (0.4% Phenylethyl Resorcinol alone, tanned phototype) is 21%.
